According to US20230250096A1, “SUBSTITUTED PHENYL-1H-PYRROLO[2,3-c] PYRIDINE DERIVATIVES” (Janssen Pharmaceutica NV, priority 2021, published 2023):

tested on: OCI-AML3 cells; assay: Proliferation assay (spheroid confluence, 8 days), OCI-AML3; format: cell-based, human; details: Homo sapiens, OCI-AML-3, OCI-AML3; read-out: spheroid assay_OCI-AML3 IC50
Method in brief: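 Cells grown as spheroids in ultra-low attachment round-bottom wells (200 MOLM14 or OCI-AML3, 300 KO-52 per well) with compound dilutions at 0.3% DMSO, 8 days, 37° C. Confluence from live-cell imaging at day 8; % effect normalized to DMSO and high-dose reference/staurosporin, absolute IC50 from variable-slope fit.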

SMILES	IC50 [nM]
Cc1cncc2c1c(C[C@H]1CCN(CC3CCOCC3)C1)cn2-c1ccc(F)cc1C(=O)N(C)C(C)C (single isomer, unassigned) [Compound 43]	23
COCC(=O)N1CCC(CN2CCC(Cc3cn(-c4ccc(F)cc4C(=O)N(C)C(C)C)c4cncc(C)c34)C2)CC1 (single isomer, unassigned) [Compound 59]	12
Cc1cncc2c1c(CC1CCN(CC3CCN(C(=O)CC#N)CC3)C1)cn2-c1ccc(F)cc1C(=O)N(C)C(C)C (single isomer, unassigned) [Compound 60]	13
Cc1cncc2c1c(C[C@H]1CCN(C[C@H]3CC[C@H](NS(C)(=O)=O)CC3)C1)cn2-c1ccc(F)cc1C(=O)N(C)C(C)C (single isomer, unassigned) [Compound 69]	21
CNC(=O)[C@H]1CC[C@H](CN2CCC(Cc3cn(-c4ccc(F)cc4C(=O)N(C)C(C)C)c4cncc(C)c34)C2)CC1 (single isomer, unassigned) [Compound 70]	68
CC(=O)N1CCC(CN2CC(Cc3cn(-c4ccc(F)cc4C(=O)N(C)C(C)C)c4cncc(C)c34)C2)CC1 [Compound 63]	121

Further lines, results first:

IC50 [nM]	SMILES
7	Cc1cncc2c1c(C[C@H]1CCN([C@@H](C)C3CCOCC3)C1)cn2-c1ccc(F)cc1C(=O)N(C)C(C)C (single isomer, unassigned) [Compound 49b]
11	Cc1cncc2c1c(C[C@@H]1CCN(CC3CCOCC3)C1)cn2-c1ccc(F)cc1C(=O)N(C[C@H](C)O)C(C)C (single isomer, unassigned) [Compound 365b]
